Earlier results as cited in KR20170036668A, “피부 발진의 예방 또는 치료용 약학 조성물” (주식회사 대웅제약, priority 2014, dated 2017).

Assays:
피부 발진 = conditions: prophylactic treatment; Jatoi A et al., Cancer 113:847-853

Row | SMILES | Incidence of erlotinib related skin effect (ERSE) (NSCLC and PC clinical trials) [%] | Proportion of patients with grade 3-4 ERSE (NSCLC and PC clinical trials) [%] | Time to onset of rash after start of treatment (rash above the waist) | Improvement of skin rash versus placebo (피부 발진) [%]
1 | C#Cc1cccc(Nc2ncnc3cc(OCCOC)c(OCCOC)cc23)c1 [엘로티닙] | 75 | ~10 | 7-10 일 | 
2 | CN(C)[C@@H]1C(O)=C(C(N)=O)C(=O)[C@@]2(O)C(O)=C3C(=O)c4c(O)cccc4[C@@](C)(O)[C@H]3C[C@@H]12 [테트라사이클린] |  |  |  | 30
